# Measurements from the supplement of paper PMC10307832.
# Experiments:
# Assay in all cases: relative viability (nuclei count vs DMSO), 5 days (fraction); higher = more cells survive
# [1] = compound: COc1cc2c(Oc3ccc4[nH]c(C)cc4c3F)ncnc2cc1OCCCN1CCCC1 [Cediranib]
# Outline: (§1)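 Five library-drug doses spaced by √10 were pinned onto vehicle-anchored 1536-well plates of lung cancer cell lines that had been kept overnight at 37 °C. Cells went 5 days without medium change, then were fixed, permeabilised and Hoechst-stained together, imaged at 4× and counted by MetaXpress. Viability is the ratio of treated-well to vehicle-well nuclei, taken as a median over plates. Plates required control CV below 25% and at least one doubling.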
# [2] = compound: O=C(C[C@H]1NCCC[C@@H]1O)Cn1cnc2cc(Br)c(Cl)cc2c1=O (racemic) [Halofuginone]
# Outline: as §1
# [3] = compound: Nc1ncn([C@H]2C[C@H](O)[C@@H](CO)O2)c(=O)n1 [Decitabine]
# Outline: as §1
cell line,measurement,setting,value
UMC-11,relative viability,[1]; 0.04 µM,0.989
same,relative viability,[1]; 0.1265 µM,0.748
same,relative viability,[1]; 0.4 µM,0.88
same,relative viability,[1]; 1.265 µM,0.69
same,relative viability,[1]; 4 µM,0.92
same,relative viability,[2]; 0.001 µM,1.12
same,relative viability,[2]; 0.003162 µM,0.984
same,relative viability,[2]; 0.01 µM,0.97
same,relative viability,[2]; 0.03162 µM,0.901
same,relative viability,[2]; 0.1 µM,0.702
same,relative viability,[3]; 0.04 µM,0.914
same,relative viability,[3]; 0.1265 µM,0.8
same,relative viability,[3]; 0.4 µM,0.536
same,relative viability,[3]; 1.265 µM,0.387
same,relative viability,"[3]; 2 µM, anchor plate",0.638
same,relative viability,[3]; 4 µM,0.419
